“Also recorded” adds a separate entry of the source.
Key:
Escherichia coli = experiment: Paper disc agar antimicrobial activity assay (inhibitory zone); assay type: cell-based; set-up: key to Diameter of inhibitory zone: ±: inhibitory zone slightly observed; +: inhibitroy zone < 7mm; conditions: paper disc 6 mm, 37 °C, 12 hours incubation
Method: (§1) The compound (Ia) dissolved in chloroform is immersed in paper disc, diameter 6 mm, and dried on a filter paper. Microbial strains shown in Table 1 are inoculated in agar medium, and paper discs hereinabove 1) are placed thereon then incubated at the temperature shown in the Table. Diameter of inhibitory zone is measured after 12 hours incubation.

Sarcina lutea = experiment: as above; assay type: cell-based; set-up: key to Diameter of inhibitory zone: ±: inhibitory zone slightly observed; +: inhibitroy zone < 7mm; conditions: paper disc 6 mm, 37 °C, 12 hours incubation
Method: as §1

Bacillus subtilis = experiment: as above; assay type: cell-based; set-up: key to Diameter of inhibitory zone: ±: inhibitory zone slightly observed; +: inhibitroy zone < 7mm; conditions: paper disc 6 mm, 37 °C, 12 hours incubation
Method: as §1

[1] = Acute toxicity, intraperitoneal administration; conditions: mouse, in vivo, ip, mice, in physiological saline containing gum arabic, read-out: LD₅₀
Method: A compound, 1 - 5 mg, dissolved in physiological saline 0.2 ml containing gum arabic is administered intra peritoneally in mice, body weight 25 g, 10 mice in one group. LD₅₀ is over 200 mg/kg.

[2] = Physico-chemical properties (solubility, nature); assay type: physicochemical
Saccharomyces sake = experiment: Paper disc agar antimicrobial activity assay (inhibitory zone); assay type: cell-based; conditions: paper disc 6 mm, 27 °C, 12 hours incubation, read-out: Diameter of inhibitory zone
Method: as §1

Staphylococcus aureus = experiment: as above; assay type: cell-based; conditions: paper disc 6 mm, 37 °C, 12 hours incubation, read-out: Diameter of inhibitory zone
Method: as §1

## COC1=C(OC)C(=O)c2c(O)c3c(c(O)c2C1=O)OCO3 [Ia, 5,8-dihydroxy-2,3-dimethoxy-6,7-methylenedioxy-1,4-naphthoquinone]
Escherichia coli; Escherichia coli, sample density 112 μg/m ℓ, read-out: Diameter of inhibitory zone
  zone of inhibition at 112 µg/mL: < 7 mm
Escherichia coli; Escherichia coli, sample density 224 μg/m ℓ, read-out: Diameter of inhibitory zone
  zone of inhibition at 224 µg/mL: < 7 mm
Escherichia coli; Escherichia coli, sample density 448 μg/m ℓ, read-out: Diameter of inhibitory zone
  zone of inhibition at 448 µg/mL: < 7 mm
Escherichia coli; sample density 56 μg/m ℓ
  Diameter of inhibitory zone: ±
Sarcina lutea; Micrococcus luteus, sample density 56 μg/m ℓ, read-out: Diameter of inhibitory zone
  zone of inhibition at 56 µg/mL: < 7 mm
Sarcina lutea; Micrococcus luteus, sample density 112 μg/m ℓ, read-out: Diameter of inhibitory zone
  zone of inhibition at 112 µg/mL: 7.4 mm
Sarcina lutea; Micrococcus luteus, sample density 224 μg/m ℓ, read-out: Diameter of inhibitory zone
  zone of inhibition at 224 µg/mL: 7.4 mm
Sarcina lutea; Micrococcus luteus, sample density 448 μg/m ℓ, read-out: Diameter of inhibitory zone
  zone of inhibition at 448 µg/mL: 7.4 mm
Sarcina lutea; sample density 14 μg/m ℓ
  Diameter of inhibitory zone: ±
Sarcina lutea; sample density 28 μg/m ℓ
  Diameter of inhibitory zone: ±
Bacillus subtilis; Bacillus subtilis, sample density 14 μg/m ℓ, read-out: Diameter of inhibitory zone
  zone of inhibition at 14 µg/mL: 7.1 mm
Bacillus subtilis; Bacillus subtilis, sample density 28 μg/m ℓ, read-out: Diameter of inhibitory zone
  zone of inhibition at 28 µg/mL: 9.5 mm
Bacillus subtilis; Bacillus subtilis, sample density 56 μg/m ℓ, read-out: Diameter of inhibitory zone
  zone of inhibition at 56 µg/mL: 8.6 mm
Bacillus subtilis; Bacillus subtilis, sample density 112 μg/m ℓ, read-out: Diameter of inhibitory zone
  zone of inhibition at 112 µg/mL: 13.3 mm
Bacillus subtilis; Bacillus subtilis, sample density 224 μg/m ℓ, read-out: Diameter of inhibitory zone
  zone of inhibition at 224 µg/mL: 13.3 mm
Bacillus subtilis; Bacillus subtilis, sample density 448 μg/m ℓ, read-out: Diameter of inhibitory zone
  zone of inhibition at 448 µg/mL: 15.5 mm
Bacillus subtilis; sample density 7 μg/m ℓ
  Diameter of inhibitory zone: ±**
[1]
  LD50: > 200 mg/kg
[2]
  nature: acidic substance (water soluble under alkaline conditions)
[2]; acidic conditions, in organic solvent
  solubility: soluble
[2]; acidic conditions, in water
  solubility: insoluble
[2]; alkaline conditions, in organic solvents
  solubility: insoluble
[2]; alkaline conditions, in water
  solubility: easily soluble; also recorded: easily soluble under neutral and acidic conditions in organic solvents such as methanol, acetone, ethyl acetate, chloroform or benzene; easily soluble under alkaline conditions in water
[2]; neutral and acidic conditions, in organic solvents such as methanol, acetone, ethyl acetate, chloroform or benzene
  solubility: easily soluble; also recorded: easily soluble under neutral and acidic conditions in organic solvents such as methanol, acetone, ethyl acetate, chloroform or benzene; easily soluble under alkaline conditions in water
Saccharomyces sake; sample density 56 μg/m ℓ
  zone of inhibition at 56 µg/mL: < 7 mm
Saccharomyces sake; sample density 224 μg/m ℓ
  zone of inhibition at 224 µg/mL: 7 mm
Saccharomyces sake; sample density 448 μg/m ℓ
  zone of inhibition at 448 µg/mL: 7.3 mm
Staphylococcus aureus; sample density 28 μg/m ℓ
  zone of inhibition at 28 µg/mL: < 7 mm
Staphylococcus aureus; sample density 56 μg/m ℓ
  zone of inhibition at 56 µg/mL: < 7 mm
Staphylococcus aureus; sample density 112 μg/m ℓ
  zone of inhibition at 112 µg/mL: < 7 mm
Staphylococcus aureus; sample density 224 μg/m ℓ
  zone of inhibition at 224 µg/mL: 7.7 mm
Staphylococcus aureus; sample density 448 μg/m ℓ
  zone of inhibition at 448 µg/mL: 8.45 mm
